{"source": "paper PMC12410356", "about": "(International Journal for Parasitology: Drugs and Drug …, 2025)", "key": {"[1]": {"tested_on": "E. multilocularis metacestode vesicles", "test": "Phosphoglucose isomerase (PGI) release assay (damage-marker release) on metacestode vesicles", "type": "cell-based, Echinococcus multilocularis", "settings": "for PGI d5 (relative PGI release) / PGI d12 (relative PGI release): 10 μM; for PGI d5 (relative PGI release): 5 days; for PGI d12 (relative PGI release): 12 days"}, "[2]": {"tested_on": "E. multilocularis GL cells", "test": "Germinal layer cell viability assay (CellTiter-Glo)", "type": "cell-based, Echinococcus multilocularis", "experimental": "The isolation of GL cells was conducted according to ([Kaethner et al., 2023]). Briefly, conditioned DMEM (cDMEM) was prepared prior to isolation. For the preparation of cDMEM, 1 × 10^6 RH cells and 10 × 10^6 RH cells incubated in DMEM supplemented with 10 % FBS, penicillin (100 U/mL), streptomycin (100 μg/mL) and tetracycline (5 μg/mL) for six or four days, respectively, at 37 °C under a humid, 5 % CO2 atmosphere. The supernatant of each was mixed 1:1 and sterile filtrated, resulting in cDMEM. Metacestode vesicles of at least 6 months of age were washed with PBS, incubated in distilled H2O for 2.5 min and subsequently mechanically disrupted. The resulting pellet was resuspended in 7 vol of pre-warmed 0.05 % Trypsin/0.02 % EDTA and incubated at 37 °C for 30 min. GL cells were extracted from the laminated layer by vigorous shaking followed by filtration through a 30 μm mesh (Sefar AG, Heiden, Switzerland) and separated from calcareous corpuscles by short centrifugation at 50×g for 30 s at RT. The isolated cells were centrifuged for 10 min at 600×g and RT and the pellet was resuspended in cDMEM. The cell suspension was diluted 1:100 in PBS to measure the OD600. An OD600 value of 0.1 of this dilution was defined as one arbitrary unit (AU) per μL of the undiluted cell suspension corresponding to 0.97 ± 0.11 μg of total protein for the GL cells as measured via Pierce™ bicinchoninic acid (BCA) Protein Assay Kit according to the manufacturer's protocol (Fisher Scientific AG, Reinach, Switzerland). 1′000 AU per 5 mL of cDMEM were cultured at 37 °C overnight under a humid nitrogen atmosphere. The next day, 2′000 AU of GL cells were combined and further cultured for 3 h at 37 °C under a humid nitrogen atmosphere before they were used for further experiments.\nTo assess effects of compounds on the cell viability of isolated E. multilocularis GL cells, the protocol was applied as previously described ([Kaethner et al., 2023]). In short, 15 AU of GL cells were distributed into each well of a black 384-well plate. Compounds dissolved in DMSO (alexidine, carbendazim, ESI-09, MMV1581545 and oxfendazole) were added to final concentrations ranging from 80 to 0.31 μM (1:2 serial dilution) and the cells were cultured for 5 days at 37 °C under a humid, microaerobic atmosphere (85 % N2, 10 % CO2, 5 % O2). DMSO with the respective concentration was used as a solvent control. Viability was measured using the CellTiter-Glo® kit. Luminescence was measured using a HIDEX Sense microplate reader. Measurements were done in quadruplicates and represented as relative viability of the DMSO controls. IC50 values were calculated in R applying the five parameter logistic model for three independent experiments ([Ritler et al., 2020])."}, "[3]": {"tested_on": "mice", "design": "method as in Almahariq et al., 2013; Maeda et al., 2020", "settings": "ref Almahariq et al., 2013, Maeda et al., 2020, cited from earlier work"}, "[4]": {"tested_on": "cancer cell lines", "design": "method as in Maeda et al., 2020", "settings": "ref Maeda et al., 2020; cited from earlier work"}, "[5]": {"tested_on": "E. multilocularis metacestode vesicles", "test": "Transmission electron microscopy of treated metacestode vesicles", "type": "cell-based, Echinococcus multilocularis", "settings": "1 μM, 24 h", "experimental": "To investigate induction of ultrastructural changes in E. multilocularis metacestode vesicles treated with ESI-09, transmission electron microscopy (TEM) was performed. Metacestode vesicles were treated with either 1 μM ESI-09 or the solvent control DMSO with subsequent incubation for 24 h at 37 °C under a humid, 5 % CO2 atmosphere. Processing and imaging was done as previously described ([Kaethner et al., 2023])."}, "[6]": {"tested_on": "E. multilocularis metacestode vesicles", "test": "Metacestode vesicle viability assay (ATP, CellTiter-Glo)", "type": "cell-based, Echinococcus multilocularis", "settings": "Echinococcus multilocularis, 288 h; for viability at 10 µM: 12 days, read-out: Viability d12 (relative viability)", "experimental": "Viability was assessed after 12 days using the same metacestode vesicles as for the PGI release assay. Triton X-100 was added to each well to a final concentration of 0.1 %. Subsequently the metacestode vesicles were broken mechanically and 50 μL of the supernatant was mixed with 50 μL of CellTiter-Glo® buffer (Promega, Dübendorf, Switzerland). Measurements were performed on a HIDEX Sense microplate reader."}, "[7]": {"tested_on": "E. multilocularis GL cells", "test": "Seahorse mito cell stress test, oxygen consumption rate", "type": "cell-based, Echinococcus multilocularis", "settings": "titration in GL cells", "experimental": "To measure mitochondrial respiration in E. multilocularis GL cells, Seahorse “mito cell stress test” was performed according to the manual for Seahorse XFp Extracellular Flux Analyzer (Agilent Technologies, Basel, Switzerland) with some adaptations ([Gu et al., 2021]; [Rufener et al., 2018]). Seahorse XFp 8-well plates were hydrated and incubated together with Seahorse XF calibrant solution at 37 °C in a non-CO2 incubator overnight the day before the actual experiment. […] Oligomycin was used at a final concentration of 1.5 μM. […] The experiment was repeated three times independently with two technical replicates."}, "[8]": {"settings": "confirmation screen, triplicates, mean"}, "[9]": {"settings": "overview screen, singlets, relative to 0.1 % Triton X-100, DMSO subtracted"}}, "note": "Like-named read-outs stand apart in the source and are kept apart here.", "data": [{"molecule": "CC(C)(C)c1cc(C(=O)/C(C#N)=N/Nc2cccc(Cl)c2)no1", "note": "[ESI-09]", "values": [{"measurement": "IC50", "setting": "[1]; Echinococcus multilocularis, 288 h, 12 days incubation, mean ± SD of three independent experiments", "result": "6060 ± 3180", "unit": "nM"}, {"measurement": "PGI d5 (relative PGI release)", "setting": "[1]; [8]", "result": 6.08, "unit": "%"}, {"measurement": "PGI d12 (relative PGI release)", "setting": "[1]; [8]", "result": 38.44, "unit": "%"}, {"measurement": "detachment of the GL from the laminated layer, visible from concentration", "setting": "[1]; microscopy pictures, 12 days incubation", "result": "≥ 13.3", "unit": "µM"}, {"measurement": "PGI d5 (relative PGI release)", "setting": "[1]; [9]", "result": 33.0513, "unit": "%"}, {"measurement": "PGI d12 (relative PGI release)", "setting": "[1]; [9]", "result": 64.0941, "unit": "%"}, {"measurement": "effect on GL cell viability (in words)", "setting": "[2]; 80 to 0.31 μM, 5 days", "result": "highly effective"}, {"measurement": "IC50", "setting": "[2]; Echinococcus multilocularis, 120 h, 5 days incubation, microaerobic, mean ± SD of three independent experiments", "result": "2450 ± 860", "unit": "nM"}, {"measurement": "tolerability in mice (in words)", "setting": "[3]; daily 10 mg/kg intraperitoneal for 21 days", "result": "well-tolerated"}, {"measurement": "tolerability in mice (in words)", "setting": "[3]; daily 50 mg/kg oral gavage up to 26 days", "result": "well-tolerated"}, {"measurement": "optimal uncoupling concentration in cancer cell lines", "setting": "[4]", "result": 2, "unit": "µM"}, {"measurement": "ultrastructural changes in metacestode vesicles (in words)", "setting": "[5]", "result": "induced distinct ultrastructural changes"}, {"measurement": "ultrastructural changes in mitochondria (in words)", "setting": "[5]", "result": "no ultrastructural changes in mitochondria were seen"}, {"measurement": "viability at 10 µM", "setting": "[6]; [8]", "result": 10.7, "unit": "%"}, {"measurement": "viability at 10 µM", "setting": "[6]; overview screen, singlets, relative to DMSO control", "result": 7.77, "unit": "%"}, {"measurement": "IC50", "setting": "[6]; 12 days incubation, mean ± SD of three independent experiments", "result": "2090 ± 560", "unit": "nM"}, {"measurement": "optimal (maximal) uncoupling concentration", "setting": "[7]", "result": 2, "unit": "µM"}]}]}
